Columns and labels:
[1] = cited from earlier work
bees [2] = test: Example 3: effect of xanthohumol formulation itself on bee colonies (vigour, hygienic instinct, toxicity); type: in vivo
Description: Group III—bee colonies treated with the protective formulation in the form of spray without poisoning with Actara. 20 mg of xanthohumol were dissolved in 1 ml of ethyl alcohol and subsequently added to 0.5 l of sugar syrup in water in a ratio of 1:1, and four hives were sprayed with use of a spraying machine so that one bee colony received a dose of about 5 mg of xanthohumol. Actara was not used in this experiment.
1 g of xanthohumol dissolved in 10 ml of ethyl alcohol which was then added to 0.125 l of sugar syrup in water in a ratio 1:1 and it was sprayed on 1 hive so that one bee colony received a dose of about 1000 mg of xanthohumol (1 hive). After 24 hours bee colony was poisoned by a contact route. Poisoning was carried out in the form of small-molecule spray which was applied on each frame with bees.

[3] = system: virus of sacbrood disease and mycosis and Nosemosis; test: Other studies in Poland: colonies with sacbrood disease, mycosis and Nosemosis; type: in vivo, bees; settings: 5 mg per one bee colony
Description: The studies prowed that the formulation containing xanthohumol (at a dose of 5 mg per one bee colony) may be used also for the treatment of the virus of sacbrood disease and mycosis and Nosemosis. […] The increased hygienic instinct was shown by studies carried out on bee colonies by a dozen of beekeepers in Poland.

bees [4] = test: Example 3: viability of bee colonies poisoned with thiamethoxam (Actara) after xanthohumol spray; type: in vivo
Description: The experiment was carried out in Loma-Zawady Przedmieście, Poland in an apiary consisting of 25 colonies based in hives of Dadant type (frame 435×300 mm). The hives had wire-net, detachable bottom in the form of a diagnostic tray. The nest body of the hives consisted of 10 frames.
Bee colonies in the form of separated colonies were purchased from local producer. Each separated colony consisted of 3 frames of brood and frames with supply of bee bread and honey. All frames were settled in “black” by bees.
The experiments were carried out on 25 swarms of bees divided into VI groups. Groups I to V, consisted of 4 hives, each.
In groups I-V, xanthohumol at the concentration of 40 mg/l was used as a protective formulation. Actara at the concentration of 0.4 g/l was used for poisoning of insects (the concentration used in spraying of beetle).
Group IV—bee colonies treated with the protective preparation in the form of spray. Poisoning with Actara by alimentary route. 20 mg of xanthohumol were dissolved in 1 ml of ethyl alcohol and subsequently added to 0.5 l of sugar syrup in water in a ration 1:1 and four hives were sprayed with spraying machine so that one bee colony received a dose of 5 mg of xanthohumol. Poisoning with Actara given with 1:1 syrup (1 kg of sugar+1 l of water).
Group V—bee colonies treated with the protective preparation in the form of spray. Poisoning with Actara by contact route. 20 mg of xanthohumol were dissolved in 1 ml of ethyl alcohol and subsequently added to 0.5 l of sugar syrup in water in a ratio 1:1 and four hives were sprayed with the spraying machine so that one bee colony received a dose of about 5 mg of xanthohumol. Poisoning was carried out in the form of small-molecule spraying which was used for each frame with bees.
In this group, a formulation of different xanthohumol concentrations was used, and Actara (thiametoxam 25%) for poisoning of bees, at a dose of 0.2 g/l (concentration used by fruit farmers) was used. The control group were bees subjected only to spraying procedure with Actara.
Group VI a)—bees were protected with the formulation of xanthohumol concentration of 0.08 mg/l.
0.01 mg of xanthohumol was dissolved in 1 ml of ethyl alcohol and subsequently added to 0.125 l of sugar syrup in water in a ratio 1:1 and 1 hive was sprayed so that one a bee colony received a dose of about 0.01 mg of xanthohumol. After 24 hours, the bee colony was poisoned by a contact route. The poisoning was carried out in the form of small-molecule spraying which was used for each frame with bees.
Group VI b)—the bees were protected with the preparation of xanthohumol in concentration 1.6 mg/l.
0.2 mg of xanthohumol was dissolved in 1 ml of ethyl alcohol and subsequently added to 0.125 l of sugar syrup in water in a ratio 1:1 and 1 hive was sprayed so that one bee colony received a dose of about 0.2 mg of xanthohumol. After 24 hours, the bee colony was poisoned by the contact route. Poisoning was carried out in the form of small-molecule spraying which was applied on each frame with the bees.
Group VI c)—the bees were protected with a formulation of xanthohumol in concentration 16 mg/l.
2 mg of xanthohumol dissolved in 1 ml of ethyl alcohol which was added to 0.125 l of sugar syrup in water in a ration of 1:1 in duplicate and it was sprayed on 2 hives so that one bee colony received a dose of about 2 mg of xanthohumol. After 24 hours, the bee colonies were poisoned by the contact route. The poisoning was carried out if the form of a small-molecule spray which was applied on each frame with bees.
Group VI d)—the bees were protected with a preparation of xanthohumol concentration 8 g/1.
1 g of xanthohumol dissolved in 10 ml of ethyl alcohol which was then added to 0.125 l of sugar syrup in water in a ratio 1:1 and it was sprayed on 1 hive so that one bee colony received a dose of about 1000 mg of xanthohumol (1 hive). After 24 hours bee colony was poisoned by a contact route. […]

[5] = system: Nosema spp. (apis and cerenae); test: Counting of Nosema cells under a microscope in blended dead bees; type: in vivo
From the text: (§1) (apis and cerenae). It was found on the basis of studies (initial results) that the amount of spores observed under a microscope after the use of Xn decreased by 60% on average in relation to control. Observation under a microscope of blended dead bees was related to counting of Nosema cells in the suspension of distilled water. […] The formulation was also investigated in several bee colonies in apiary infected with Nosemosis.

[6] = system: focal ischaemia caused by MCAO in rats; settings: cited from earlier work
bees [7] = test: Example 1: viability of bees in experimental queen cages with high concentration of imidaclopride; type: in vivo; settings: 10 mg/l xanthohumol in syrup for three days, then imidaclopride (Kohinor 200 SL) 375 μl/l; controls died in 100%
Description: The experiment was carried out in Lublin, Poland in an apiary containing 250 bee colonies.
The influence of xanthohumol concentration in sugar syrup on the viability of bees was studied on samples of 100 bees placed in a special cage for studies, (FIG. 1). The bees were taking a protective formulation for three days in the form of xanthohumol dissolved in standard sugar syrup in three concentrations: 5, 10 and 20 mg of xanthohumol/1, respectively. Each concentration was studied in three independent small hives. After three days of taking the protective formulation, the bees received imidaclopride (in Kohinor 200 SL) in a concentration of 375 μl/l in a […] (similar doses are used for controlling of insects in vegetable cultivations). As a control group, three small hives of 100 bees each were used, which were not fed with xanthohumol containing preparation. All xanthohumol concentrations and the control group were studied in thriplicate. Xanthohumol obtained by chromatographic method from hop post-extraction waste was used. The purity of the preparation was ˜99% (FIG. 3).

Nosema spp. = test: Spraying of bee colonies in apiary infected with Nosemosis; type: in vivo; settings: several days after spraying with formulation containing xanthohumol
From the text: as §1

bees [8] = test: Stocking of a hive contaminated with a pesticide with a protected colony; type: in vivo; settings: xanthohumol in syrup 2 g/l by spray; unprotected colony collapsed
From the text: Furthermore, it was found on the basis of the studies with the use of the formulation according to the invention, that there is a possibility of rehabilitating the protected bees in these regions which were contaminated by pesticides, where it has not been possible so far. In the hive where a control bee colony unprotected with the preparation was stocked with new unprotected colony, it collapsed within a short time. A hive contaminated with a pesticide is poisonous for bees even after several weeks.

bees [9] = test: Example 2: viability and behaviour of bees in apiary hives with low concentration of imidaclopride spray; type: in vivo
Description: Similar studies as described in example 1 were carried out in three bee hives containing ˜40,000 bees. Frames with bees (FIG. 4) were sprayed with imidaclopride dissolved in water at a concentration of 125 μl/l (microlitres per litre). It is a half of imidaclopride concentration in Kohinor 200 SL used in cultivation of vegetables in soil. The purpose of the study was to investigate low doses of imidaclopride to which mainly are exposed the bees collecting nectar during agrotechnological procedures.
The bees were studied in two groups. […] The studied group were bees which were given protective xanthohumol preparation in […] (milligram per litre) syrup for one week and then treated with imidaclopride spray at the above mentioned concentration (FIGS. 6A, 6B and 6C).

Question: For `COc1cc(O)c(CC=C(C)C)c(O)c1C(=O)/C=C/c1ccc(O)cc1` [xanthohumol], which water solubility [1] is on record?
Answer: Its water solubility is “poor”.

Question: What about the “behaviour and hygienic instinct of bee colony” value (bees [2]; Group III: spray, xanthohumol 40 g/l, about 5 mg per colony, no Actara) of the same compound?
Answer: Its value is “improved the behaviour of bee colony and significantly influenced hygienic instinct of a bee”.

Question: And the “Varroa destructor mites on the diagnostic tray” value (bees [2]; Group III: spray, xanthohumol 40 g/l, no Actara, not observed in control hives)?
Answer: The value was “Dead mites Varroa destructor were also observed”.

Question: What about the “symptoms increasing the vigour” value (bees [2]; Group VI a: 0.01 mg xanthohumol per colony) of the same compound?
Answer: Its value is “no symptoms increasing the vigour”.

Question: And the “toxic effects of xanthohumol preparation on bees” value (bees [2]; Group VI d: 1 gram per hive (8 g/l), inspected 24 hours after use, before poisoning)?
Answer: Its value is “did not cause any toxic effects”.

Question: And the “movement of bees at the beehive entrance” value (bees [2]; all studied concentrations of xanthohumol, compared to control hives)?
Answer: Its value is “increased movement of bees was observed at the beehive entrance”.

Question: And the “brooding of bee mothers compared with the control” value (bees [2]; first half of August, hives protected with the preparation)?
Answer: Its value is “significant increase”.

Question: And the “effect in colonies with mycosis and Nosemosis” value [3]?
Answer: The value was “fast purification of the nest from dead insects occurred”.

Question: And the “effect in colonies with sacbrood disease” value [3]?
Answer: The value was “the colony started to work”.

Question: What about the losses of bees (bees [4]; Group IV: xanthohumol 40 mg/l spray, Actara 0.4 g/l alimentary route after 24 hours) of the same compound?
Answer: Its losses of bees is 35%.

Question: What about the “memory / flights for pollen of surviving colonies” value (bees [4]; Group IV: xanthohumol 40 mg/l, Actara 0.4 g/l alimentary route) of the same compound?
Answer: The value was “did not lose memory”.

Question: And the losses of bees (bees [4]; Group V: xanthohumol 40 mg/l spray, Actara 0.4 g/l contact route after 24 hours)?
Answer: Its losses of bees is 10%.

Question: And the “memory / flights for pollen of surviving colonies” value (bees [4]; Group V: xanthohumol 40 mg/l, Actara 0.4 g/l contact route)?
Answer: Its value is “did not lose memory and carried pollen”.

Question: And the “behaviour of the colony” value (bees [4]; Group VI a survivors, a week after post-poisoning spraying with xanthohumol 1.6 mg/l, dose of 2 mg)?
Answer: Its value is “returned to normal”.

Question: And the “time until bees restarted flights around the hive” value (bees [4]; Group VI a survivors, sprayed after poisoning with xanthohumol 1.6 mg/l, dose of 2 mg)?
Answer: The value was 48 h.

Question: What about the “part of bee colony that did not survive” value (bees [4]; Group VI a: xanthohumol 0.08 mg/l (0.01 mg per colony), Actara 0.2 g/l contact after 24 hours) of the same compound?
Answer: The value was 60%.

Question: What about the “restart of flights for pollen by surviving bees” value (bees [4]; Group VI a: xanthohumol 0.08 mg/l, Actara 0.2 g/l) of the same compound?
Answer: The value was “did not restart flights for pollen either after 24 hours or 48 hours”.

Question: And the “part of bee colony that did not survive” value (bees [4]; Group VI b: xanthohumol 1.6 mg/l (0.2 mf per colony), Actara 0.2 g/l contact)?
Answer: The value was “about 40%”.

Question: What about the “time until surviving bees restarted flights for pollen” value (bees [4]; Group VI b: xanthohumol 1.6 mg/l, Actara 0.2 g/l) of the same compound?
Answer: Its value is 48 h.

Question: What about the symptoms of poisoning (bees [4]; Group VI c: seven days from poisoning) of the same compound?
Answer: Its symptoms of poisoning is “do not show any symptoms of poisoning”.

Question: What about the survival of bees (bees [4]; Group VI c: xanthohumol 16 mg/l (2 mg per colony), Actara 0.2 g/l contact) of the same compound?
Answer: Its survival of bees is “almost all bees survived”.

Question: What about the “time until surviving bees restarted flights for pollen” value (bees [4]; Group VI c: xanthohumol 16 mg/l, Actara 0.2 g/l) of the same compound?
Answer: The value was 24 h.

Question: And the symptoms of poisoning (bees [4]; Group VI d: after seven days)?
Answer: The symptoms of poisoning was “did not show any symptoms of poisoning”.

Question: What about the losses of bees (bees [4]; Group VI d: xanthohumol 8 g/l (1 g per colony), Actara 0.2 g/l) of the same compound?
Answer: Its losses of bees is 10%.

Question: What about the bees survived (bees [4]; Group VI d: xanthohumol 8 g/l (1 g per colony), Actara 0.2 g/l contact after 24 hours) of the same compound?
Answer: Its bees survived is 90%.

Question: And the “decrease of amount of Nosema spores observed under a microscope in relation to control” value ([5]; after the use of Xn, on average, initial results)?
Answer: Its value is 60%.

Question: And the “number of Nosema pieces in suspension of blended dead bees” value ([5]; after using the formulation for 1 week, bees without Xn 30±3)?
Answer: The value was 8±2 pieces.

Question: What about the “area of brain ischaemic necrosis” value [6] of the same compound?
Answer: The value was “significantly decreased”.

Question: What about the viability of bees (bees [7]) of the same compound?
Answer: The viability of bees was ~45%.

Question: What about the “typical symptoms of Nosema spp. infection (soiling of frames and front wall of the hive with feces)” value (Nosema spp.) of the same compound?
Answer: Its value is “disappeared”.

Question: What about the “fate of protected colony put into pesticide-contaminated hive” value (bees [8]) of the same compound?
Answer: The value was “still lived and did not show symptoms of poisoning”.

Question: What about the behaviour of bees (bees [9]; two weeks after the administration of imidaclopride) of the same compound?
Answer: The behaviour of bees was “did not show any differences in behaviour compared to the healthy hives”.

Question: And the bees died (bees [9]; xanthohumol 10 mg/ml (milligram per litre) syrup for one week, then imidaclopride spray 125 μl/l)?
Answer: The bees died was ~10%.

Question: And the “time from spraying until bees started to fly to the pasture and bring pollen” value (bees [9]; xanthohumol syrup one week, imidaclopride spray 125 μl/l)?
Answer: The value was “Three”.

Reference: US20150283098A1, “PRENYLATED CHALCONE FORMULATION FOR THE TREATMENT OF BEES” (BIOACTIVE-TECH SP. Z O.O., priority 2012, published 2015)
